Laboratory results taken from ChEMBL document CHEMBL1201862, “PubChem BioAssay data set” (2004).
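Interpolation was linear, between the two tested concentrations surrounding the appropriate level; five concentrations were tested over 48 hours in 96-well plates. The concentration for 50% growth inhibition is given as GI50.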 Activity calls are given as the source filed them. Rule as the data show it: active = GI50 up to about 1.1 µM and inactive = higher.

Columns and labels:
Assay in all cases: growth of human tumour cells (NCI), 48 h
SW-620 = tested on: SW-620
OVCAR-5 = tested on: OVCAR-5
RXF 393 = tested on: RXF 393
NCI-H226 = tested on: NCI-H226
HL-60 = tested on: HL-60
SF-539 = tested on: SF-539
A498 = tested on: A498
T47D = tested on: T47D
CAKI-1 = tested on: CAKI-1
HCT-116 = tested on: HCT-116
ACHN = tested on: ACHN
NCI-H23 = tested on: NCI-H23
SN12C = tested on: SN12C
OVCAR-4 = tested on: OVCAR-4
SF-268 = tested on: SF-268
LOX IMVI = tested on: LOX IMVI
Malme-3M = tested on: Malme-3M
NCI-H460 = tested on: NCI-H460
KM12 = tested on: KM12
MDA-MB-231 = tested on: MDA-MB-231

Measured: GI50

COc1cc([C@H]2c3cc4c(cc3O[C@@]3(O)COC(=O)[C@@H]23)OCO4)cc(OC)c1OC
inactive: SW-620 > 100 µM | OVCAR-5 > 100 µM | RXF 393 > 10 µM | NCI-H226 > 100 µM | HL-60 > 100 µM | SF-539 > 100 µM | A498 > 100 µM | T47D > 100 µM | CAKI-1 > 100 µM | HCT-116 > 100 µM | ACHN > 100 µM | NCI-H23 > 10 µM | SN12C > 100 µM | OVCAR-4 > 100 µM | SF-268 > 100 µM | LOX IMVI > 100 µM | Malme-3M > 100 µM | NCI-H460 > 100 µM | KM12 > 100 µM | MDA-MB-231 > 100 µM
